# Experimental data taken from patent US20130237556A1, “BERBERINE ALKALOID AS A MEDICAMENT FOR PREVENTION AND TREATMENT OF NEURAL DISEASE” (HONG KONG BAPTIST UNIVERSITY, priority 2012, published 2013).
# Values joined by “and” are separate entries in the source; they are usually repeats but may differ in a detail not shown here. Equal values may be shown once. “Also recorded” adds a separate entry of the source.
# Legend:
# TgCRND8 mice [1] = assay: Aβ plaque burden by 4G8 immunostaining in cortex and hippocampus; type: in vivo, mouse
# [2] = BBR levels in TgCRND8 brain tissue by LC/MS after oral administration; type: in vivo, mouse; settings: for concentration at 3 hr: TgCRND8, mouse, brain, po, 3 hr after p.o. administration, LC/MS
# Description: To determine how oral administration of BBR influences the concentration of BBR in the brain, liquid chromatography and mass spectrometry techniques (LC/MS) are used to analyze changes in BBR levels in the TgCRND8 brain tissue in a separate experiment. BBR levels in the brain are found to be 0.88±0.27 and 1.67±0.73 μM for low and high doses of BBR respectively after 3 hr p.o. administration.
# TgCRND8 mice [3] = assay: Morphometric analysis of Aβ plaque size subsets; type: in vivo, mouse
# TgCRND8 mice [4] = assay: Morris water maze (visible platform, hidden platform, probe trials); type: in vivo, mouse
# [5] = Regular oral BBR treatment of TgCRND8 mice: body weight and side effects; settings: BBR 25 or 100 mg/kg/d orally for 4 months
# TgCRND8 mice [6] = assay: Thioflavin S staining of fibrillar parenchymal and cerebrovascular (CAA) Aβ; type: in vivo, mouse; settings: for reduction in ThioS-positive fibrillar Aβ: relative to untreated control TgCRND8
# TgCRND8 mice [7] = assay: Aβ1-40 and Aβ1-42 sandwich ELISA in SDS and formic acid brain extracts; type: in vivo, mouse
# N2a-SwedAPP cells = assay: MTT toxicity assay; type: cell-based, mouse; settings: up to 25 μM BBR, 24 h
# Description: N2a-SweAPP cells are mouse neuroblastoma N2a cells stably transfected with human Swedish mutant APP695, and were gifts from Dr. Gopal Thinakaran (University of Chicago, Chicago Ill.). Cells were maintained in Dulbecco's modified Eagle's medium (DMEM) (Invitrogen, Carlsbad, Calif.) supplemented with 10% fetal bovine serum, penicillin and streptomycin and 200 μg/mL G418 (Invitrogen). Cells were cultured either in multiwell dishes or on 60 mm tissue culture plates in DMEM 10% with FBS Cell cultures were incubated at 37° C. in a humid 5% CO2/ 95% air environment. After cells were grown close to confluence, they were treated with/without different concentrations of BBR in DMEM (1% FBS) for 24 h. […] For the concentration-dependent treatment, cells were treated with serial dilutions of BBR ranging from 0-20 μM for 2 or 12 h prior to lysis with ice-cold RIPA buffer (20 mM Tris, pH 7.4, 150 mM NaCl, 1% triton-X, 0.5% sodium deoxycholate, EDTA) containing protease inhibitor cocktails (EMD chemicals, Philadelphia, Pa.) to find the optimal range of BBR. For the time-dependent application, cells were treated with a 20 μM concentration of BBR and incubated at time points ranging from 0-180 min prior to lysis. For immunofluorescent staining, N2a-SwedAPP cells were seeded on glass cover slips at a density of 0.5×10^5 viable cells per well in a 24-well plate. […]
# TgCRND8 mice [8] = assay: Western blot of brain homogenates (APP processing, tau phosphorylation, Akt/GSK3); type: in vivo, mouse
# Aβ1-42 fibril formation [9] = target: T1, Aβ1-42 fibril formation (Homo sapiens, UniProt P05067); settings: BBR 20 μM, in vitro; cited from earlier work
# Aβ1-42 fibril formation [10] = target: T1, Aβ1-42 fibril formation; assay: Inhibition of Aβ1-42 fibril formation in vitro; type: biochemical
# TgCRND8 mice [11] = assay: Microgliosis (Iba-1 burden) and astrocytosis (GFAP burden) immunohistochemistry; type: in vivo, mouse
# [12] = low dose BBR, SDS and FA fractions
# [13] = BBR 25 and 100 mg/Kg/d vs vehicle
# [14] = BBR- vs vehicle-treated TgCRND8
# [15] = BBR-treated vs vehicle-treated TgCRND8, dose not stated
# [16] = BBR-treated TgCRND8, dose not stated (discussion)
# T1 sequence (P05067 672-713 limits assumed): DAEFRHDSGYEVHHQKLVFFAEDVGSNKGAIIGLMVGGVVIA
smiles,measurement,setting,value
"COc1ccc2cc3[n+](cc2c1OC)CCc1cc2c(cc1-3)OCO2 [BBR, 5,6-dihydro-9,10-dimethoxybenzo[g]-1,3-benzodioxolo[5,6-a]quinolizinium]",decrease in plaque burden compared with control animals (4G8),TgCRND8 mice [1]; 25 mg/Kg/d,60% and 61%
same,reduction in amyloid burden observed in this study,TgCRND8 mice [1]; range over BBR doses (discussion),43-63%
same,concentration at 3 hr,"[2]; 25 mg/kg/d, low dose of BBR",880 ± 270 nM
same,concentration at 3 hr,"[2]; 100 mg/kg/d, high dose of BBR",1670 ± 730 nM
same,passage through the blood-brain barrier,"[2]; mouse, in vivo",readily passes through the blood-brain barrier
same,percentage reduction in large (>50) amyloid plaque subset,TgCRND8 mice [3]; 25 mg/Kg,60%
same,percentage reduction in medium (25-50 μm) amyloid plaque subset,TgCRND8 mice [3]; 25 mg/Kg,41%
same,percentage reduction in small sized (<25 μm) amyloid plaque subset,TgCRND8 mice [3]; 25 mg/Kg,35%
same,percentage reduction in total amyloid plaque number,TgCRND8 mice [3]; 25 mg/Kg,37%
same,reduction of amyloid plaque subsets,TgCRND8 mice [3]; 100 mg/Kg/d,21-28%
same,probe trial: time spent in the target quadrant,TgCRND8 mice [4]; 25 and 100 mg/kg/d vs vehicle-treated TgCRND8,highest duration; also recorded: prevent decrease in the time spent in the target quadrant
same,probe trial: spatial bias,"TgCRND8 mice [4]; BBR 25 mg/Kg, all probe trials",significantly increases their spatial bias
same,hidden platform path distance (swim path),TgCRND8 mice [4]; low and high doses of BBR (25 and 100 mg/kg/d) vs vehicle-treated TgCRND8,significantly reduced swim path; also recorded: reduced the path distance; also recorded: show a reduction in swimming distance
same,animal body weight,[5],does not significantly influence animal body weight
same,"ThioS-labeled blood vessels (CAA), cortical area covered",TgCRND8 mice [6]; 25 mg/Kg/d (vehicle 1.44±0.17%),0.70% ±0.11
same,reduction in ThioS-positive fibrillar Aβ,TgCRND8 mice [6]; 25 mg/kg/d,40%
same,"ThioS-labeled blood vessels (CAA), cortical area covered",TgCRND8 mice [6]; 100 mg/Kg/d (vehicle 1.44±0.17%),0.89%±0.02
same,reduction in ThioS-positive fibrillar Aβ,TgCRND8 mice [6]; 100 mg/kg/d,51%
same,"diminution of Aβ1-40, SDS-soluble fraction",TgCRND8 mice [7]; 25 mg/Kg/d,44%
same,"reduction of Aβ1-40, formic acid extractable fraction",TgCRND8 mice [7]; 25 mg/Kg/d,49%
same,"reduction of Aβ1-42, formic acid extractable fraction",TgCRND8 mice [7]; 25 mg/Kg/d,44%
same,"diminution of Aβ1-40, SDS-soluble fraction",TgCRND8 mice [7]; 100 mg/Kg/d,32%
same,"reduction of Aβ1-40, formic acid extractable fraction",TgCRND8 mice [7]; 100 mg/Kg/d,54%
same,"reduction of Aβ1-42, formic acid extractable fraction",TgCRND8 mice [7]; 100 mg/Kg/d,39%
same,"Aβ1-42, SDS-soluble fraction",TgCRND8 mice [7]; BBR treatments (25 and 100 mg/Kg/d),slight reduction
same,reduction of total extracted Aβ40,TgCRND8 mice [7]; [12],44-49%
same,reduction of total extracted Aβ42,TgCRND8 mice [7]; [12],22-43%
same,cell viability (MTT),N2a-SwedAPP cells,did not affect cell viability
same,CTF-α and β levels in brain homogenates,TgCRND8 mice [8]; 25 mg/Kg/day,significantly reduces
same,ADAM-10 level in brain homogenates,TgCRND8 mice [8]; [13],no significant difference; also recorded: no effect
same,BACE-1 level in brain homogenates,TgCRND8 mice [8]; [13],no effect; also recorded: no significant difference
same,full length APP level in brain homogenates,TgCRND8 mice [8]; [13],no effect; also recorded: no significant difference
same,total GSK3α/β and total Akt,TgCRND8 mice [8]; BBR treatment,unaltered
same,IDE level in brain homogenates,TgCRND8 mice [8]; BBR vs vehicle,no significant difference; also recorded: does not affect
same,neprilysin level in brain homogenates,TgCRND8 mice [8]; BBR vs vehicle,no significant difference; also recorded: does not affect
same,p-Cdk5 (Y15) level,TgCRND8 mice [8]; [14],no significant differences
same,p-JNK (Thr183/Tyr185) level,TgCRND8 mice [8]; [14],no significant differences
same,phosphorylated Akt (p-Akt) level normalized to total Akt,TgCRND8 mice [8]; [14],significantly high
same,tau-1 immunoreactivity (dephosphorylated tau),TgCRND8 mice [8]; BBR-treated TgCRND8,significant increase
same,enhancement in phosphorylated GSK3α and β at Ser 21 and 9,TgCRND8 mice [8]; BBR-treated vs vehicle-treated TgCRND8,50%
same,decrease of phosphorylated tau at AT8 phosphoepitope,TgCRND8 mice [8]; [15],30%
same,decrease of phosphorylated tau at AT180 phosphoepitope,TgCRND8 mice [8]; [15],42%
same,decrease of phosphorylated tau at PHF-1 phosphoepitope,TgCRND8 mice [8]; [15],26%
same,total tau levels,TgCRND8 mice [8]; between the groups,No significant difference
same,decrease in the p-APP and p-CTFs,TgCRND8 mice [8]; high dose group vs vehicle,27-28%
same,decrease in the p-APP and p-CTFs,TgCRND8 mice [8]; low dose group vs vehicle,46-50%
same,inhibition of Aβ1-42 fibril formation,Aβ1-42 fibril formation [9],36.3%
same,IC50,Aβ1-42 fibril formation [10]; in vitro,23.5 µM
same,effective in vitro concentration (approximately 20 μM) relative to brain levels,Aβ1-42 fibril formation [10]; printed as 'times less than those found in the brain',23 times
same,GFAP burden (astrocytosis) reduced to % relative to vehicle-treated,TgCRND8 mice [11]; 25 mg/Kg,54%
same,Iba-1 burden (microgliosis) reduced to % relative to vehicle-treated,TgCRND8 mice [11]; 25 mg/Kg/d,45%
same,GFAP burden (astrocytosis) reduced to % relative to vehicle-treated,TgCRND8 mice [11]; 100 mg/Kg,28%
same,Iba-1 burden (microgliosis) reduced to % relative to vehicle-treated,TgCRND8 mice [11]; 100 mg/Kg/d,27%
same,decrease in astrocytosis,TgCRND8 mice [11]; [16],54%
same,reduction in microgliosis,TgCRND8 mice [11]; [16],45%
